Assay results from ChEMBL document CHEMBL2331268, “The interaction of imidazole-, imidazolium-, and tetrazolium-containing compounds with DNA” (Bioorg Med Chem Lett, 2013).
Calls of active or inactive are those of the source. No cut-off for these calls is given here.

How the values were obtained:
[1] = Displacement of SYBR green I from salmon testes DNA assessed as compound treated with DNA followed by SYBR green I added relative to control; design: species or system Salmonidae
Salmonidae [2] = assay: Displacement of SYBR green I from salmon testes DNA assessed as SYBR green I treated with DNA followed by compound added relative to control
Salmonidae [3] = assay: Displacement of SYBR green I from salmon testes DNA assessed as compound treated with SYBR green I followed by DNA added relative to control

Row | IC50 [1] [mM] | Activity (Salmonidae [2]) | Activity (Salmonidae [3]) | Compound
1 | > 2.5 |  |  | C[n+]1ccn(CCCCCCCCn2cc[n+](C)c2)c1
2 | > 2.5 |  |  | Brc1cccc(Cn2cc[n+](Cc3cccc(Br)c3)c2)c1
3 | > 2.5 |  |  | Ic1ccc(Cn2cc[n+](Cc3ccc(I)cc3)c2)cc1
4 | > 2.5 |  |  | c1cn(CCCCCCCCCCCn2ccnc2)cn1
5 | 0.066 |  |  | c1ccc(-c2nn(-c3ccccc3)[n+](-c3ccc(-c4ccc(-[n+]5nc(-c6ccccc6)nn5-c5ccccc5)cc4)cc3)n2)cc1 [NEOTETRAZOLIUM CHLORIDE]
6 | > 2.5 |  |  | c1cn(CCCCCCCCCCCCCCn2ccnc2)cn1
7 | 0.008 |  |  | C[n+]1ccn(CCCCCCCCCCCCCCCCCCCCn2cc[n+](C)c2)c1
8 | 0.03 | Active | Active | C[n+]1ccn(CCCCCCCCCCCCCCCCn2cc[n+](C)c2)c1
9 | > 2.5 |  |  | c1cn(CCCCCCCCCCn2ccnc2)cn1
10 | > 2.5 |  |  | Clc1ccc(Cn2cc[n+](Cc3ccc(Cl)cc3)c2)cc1
11 | > 2.5 |  |  | c1cn(-c2ccc(-n3ccnc3)cc2)cn1
12 | 0.186 |  |  | c1cn(CCCCCCCCCCCCCn2ccnc2)cn1
13 | > 2.5 |  |  | c1cn(CCCCCCCCn2ccnc2)cn1
14 | > 2.5 | Active |  | C[n+]1ccn(CCCCCCCCCCCCCCCn2cc[n+](C)c2)c1
15 | 0.37 |  |  | c1ccc(C[n+]2ccn(-c3ccc(-c4ccc(-n5cc[n+](Cc6ccccc6)c5)cc4)cc3)c2)cc1
16 | 0.0074 |  |  | C[n+]1ccn(CCCCCCCCCCCCCCCCCCn2cc[n+](C)c2)c1
17 | 0.109 |  |  | CCC[n+]1ccn(CCCCCCCCCCCCn2cc[n+](CCC)c2)c1
18 | > 2.5 |  |  | C[n+]1ccn(CCCCCCCCCCn2cc[n+](C)c2)c1
19 | > 2.5 |  |  | C[n+]1ccn(CCCCCCCCCCCCn2cc[n+](C)c2)c1
20 | > 2.5 |  |  | COc1cc(-c2ccc(-n3nc(-c4ccccc4)n[n+]3-c3ccccc3)c(OC)c2)ccc1-n1nc(-c2ccccc2)n[n+]1-c1ccccc1 [TETRAZOLIUM BLUE CHLORIDE]
21 | > 2.5 |  |  | CC[n+]1ccn(CCCCCCCCCCCCn2cc[n+](CC)c2)c1

The remaining lines, values behind:

Row | Compound | IC50 [1] [mM] | Activity (Salmonidae [2]) | Activity (Salmonidae [3])
22 | c1cn(-c2ccc(-c3ccc(-n4ccnc4)cc3)cc2)cn1 | > 2.5 |  | 
23 | c1ccc(-c2nn(-c3ccccc3)[n+](-c3cccc4ccccc34)n2)cc1 [TETRAZOLIUM VIOLET] | > 2.5 |  | 
24 | O=[N+]([O-])c1ccc(Cn2cc[n+](Cc3ccc([N+](=O)[O-])cc3)c2)cc1 | 0.0003 |  | 
25 | c1cn(CCCCCCCCCCCCCCCCn2ccnc2)cn1 | 0.052 | Active | 
26 | C[n+]1ccn(-c2ccc(-c3ccc(-n4cc[n+](C)c4)cc3)cc2)c1 | 0.423 |  | 
27 | C[n+]1ccn(CCCCn2cc[n+](C)c2)c1 | > 2.5 |  | 
28 | c1cn(CCCCCCCCCCCCn2ccnc2)cn1 | > 2.5 |  | 
29 | c1ccc(-c2nn(-c3ccccc3)[n+](-c3ccccc3)n2)cc1 [TETRAZOLIUM RED] | > 2.5 |  | 
30 | C[n+]1ccn(Cc2ccc(-c3ccc(Cn4cc[n+](C)c4)cc3)cc2)c1 | > 2.5 |  | 
31 | C[n+]1ccn(CCCCCCCCCCCCCn2cc[n+](C)c2)c1 | 0.0252 |  | 
32 | C[n+]1ccn(CCCCCCCCCCCn2cc[n+](C)c2)c1 | > 2.5 |  | 
33 | c1ccc2cc(Cn3cc[n+](Cc4ccc5ccccc5c4)c3)ccc2c1 | > 2.5 |  | 
34 | C[n+]1ccn(-c2ccc(-n3cc[n+](C)c3)cc2)c1 | > 2.5 |  | 
35 | Clc1ccccc1Cn1cc[n+](Cc2ccccc2Cl)c1 | > 2.5 |  | 
36 | c1cn(CCCCCCn2ccnc2)cn1 | > 2.5 |  | 
37 | C[n+]1ccn(CCCCCCCCCCCCCCn2cc[n+](C)c2)c1 | 1.21 |  | 
38 | c1cn(CCCCCCCCCCCCCCCCCCn2ccnc2)cn1 | 0.058 |  | Active
39 | c1cn(CCCCCCCCCCCCCCCn2ccnc2)cn1 | > 2.5 |  | 
40 | O=[N+]([O-])c1ccc(-n2nc(-c3ccccc3)n[n+]2-c2ccc(I)cc2)cc1 [IODONITROTETRAZOLIUM CHLORIDE] | > 2.5 |  | 
41 | O=[N+]([O-])c1ccc(C[n+]2ccn(-c3ccc(-c4ccc(-n5cc[n+](Cc6ccc([N+](=O)[O-])cc6)c5)cc4)cc3)c2)cc1 | 0.0004 |  | 
42 | COc1cc(-c2ccc(-n3nc(-c4ccc([N+](=O)[O-])cc4)n[n+]3-c3ccc([N+](=O)[O-])cc3)c(OC)c2)ccc1-n1nc(-c2ccc([N+](=O)[O-])cc2)n[n+]1-c1ccc([N+](=O)[O-])cc1 | 0.034 |  | 
43 | c1cn(CCCCn2ccnc2)cn1 | > 2.5 |  | 
44 | C[n+]1ccn(CCCCCCn2cc[n+](C)c2)c1 | > 2.5 |  | 
45 | Brc1ccc(C[n+]2ccn(Cc3ccccc3)c2)cc1 | > 2.5 |  | 
46 | c1cn(Cc2ccc(-c3ccc(Cn4ccnc4)cc3)cc2)cn1 | > 2.5 |  | 
47 | C[n+]1ccn(CCCOc2ccc(OCCCn3cc[n+](C)c3)cc2)c1 | > 2.5 |  | 
48 | COc1cc(-c2ccc(-[n+]3nc(-c4ccccc4)nn3-c3ccc([N+](=O)[O-])cc3)c(OC)c2)ccc1-[n+]1nc(-c2ccccc2)nn1-c1ccc([N+](=O)[O-])cc1 [NITROBLUE TETRAZOLIUM CHLORIDE] | 0.36 |  | 
49 | c1cn(CCCCCCCCCCCCCCCCCCCCn2ccnc2)cn1 | > 2.5 |  | 
50 | Brc1ccc(Cn2cc[n+](Cc3ccc(Br)cc3)c2)cc1 | > 2.5 |  | 
